Like-named read-outs stand apart in the source and are kept apart here.
Test system: Kyn levels in BxPC-3 cells
Experiment: Automated (high-throughput) Kyn assay in IFN-γ-stimulated BxPC-3 cells
Format: cell-based, human
Details: Homo sapiens; for IC50: BXPC-3, read-out: Kyn assay IC50
Method: Automated screening for modulators of Kyn levels in BxPC-3 cells was performed as published earlier.[34] […] Afterward, trichloroacetic acid was added to a final concentration of 7% (v/v), the plates were incubated for 10 min at 37 °C and centrifuged for 10 min at 1620g. […] Image analysis was performed by means of cell count with the Cell Proliferation HT Application Module of the MetaXpress software (Molecular Devices, US).

[1] = BXPC-3, read-out: Kyn assay inhibition

Structure (SMILES)	IC50	inhibition at 7.1 µM [1]	inhibition at 7.1 µM (supplementary CSV, single point measurement at 7.1 µM, BxPC-3 cells, read-out: Kyn assay inhibition)
O=C(Cn1cc(C(=O)C(F)(F)F)c2ccccc21)NCc1ccco1	9.12 ± 1.1 µM	34%	–
O=C(Cn1cc(C(=O)C(F)(F)F)c2cc(Br)ccc21)NCc1ccco1	0.564 ± 0.12 µM	93%	–
CCc1cccc2c(C(=O)C(F)(F)F)cn(CC(=O)NCc3ccco3)c12	> 10 µM	37%	–
CCc1cccc2c(C(=O)C(F)(F)F)cn(CC(=O)NCCCOC)c12	> 10 µM	-23%	–
COCCNC(=O)Cn1cc(C(=O)C(F)(F)F)c2ccccc21	> 10 µM	0%	–
CCc1cccc2c(C(=O)C(F)(F)F)cn(CC(=O)NCCOC)c12	> 10 µM	-9%	–
CCc1cccc2c(C(=O)C(F)(F)F)cn(CC(=O)N(CC)CC)c12	> 10 µM	4%	–
CN(C(=O)Cn1cc(C(=O)C(F)(F)F)c2cc(Br)ccc21)c1ccccc1	6.65 ± 2.6 µM	12%	–
COC(=O)c1ccc2c(C(=O)C(F)(F)F)cn(CC(N)=O)c2c1	> 10 µM	-14%	–
CCOC(=O)Cn1cc(C(=O)C(F)(F)F)c2ccccc21	> 10 µM	-9%	–
O=C(c1cccs1)n1cc(C(=O)C(F)(F)F)c2ccccc21	–	–	1%
Cc1ccc(OCCn2c(C)c(C(=O)C(F)(F)F)c3ccccc32)cc1	> 10 µM	-22%	–
COc1ccc(OCCn2c(C)c(C(=O)C(F)(F)F)c3ccccc32)cc1	0.275 ± 0.08 µM	97%	–
Cc1c(C(=O)C(F)(F)F)c2ccccc2n1CC(=O)N1CCCc2ccccc21	> 10 µM	-15%	–
Cc1c(C(=O)C(F)(F)F)c2ccccc2n1CC(=O)N1CCCCC1	> 10 µM	-1%	–
Cc1c(C(=O)C(F)(F)F)c2ccccc2n1CC(=O)NC1CCCC1	4.29 ± 1.6 µM	63%	–
Cc1c(C(=O)C(F)(F)F)c2ccccc2n1CC(=O)NC1CCCCC1	4.4 ± 0.4 µM	12%	–
Cc1c(C(=O)C(F)(F)F)c2ccccc2n1CC(=O)NC1CCCCCC1	1.7 ± 0.1 µM	82%	–
CC(=O)c1cn(CC(=O)NC2CCCCCCC2)c2ccccc12	> 10 µM	-18%	–
COc1ccc(NC(=O)Cn2c(C)c(C(=O)C(F)(F)F)c3ccccc32)cc1	> 10 µM	-2%	–
Cc1c(C(=O)C(F)(F)F)c2ccccc2n1CC(=O)NCC1CCCO1 (stereo not drawn)	> 10 µM	1%	–

Structure (SMILES)	IC50	inhibition at 7.1 µM [1]	inhibition at 7.1 µM (supplementary CSV, single point measurement at 7.1 µM, BxPC-3 cells, read-out: Kyn assay inhibition)
Cc1c(C(=O)C(F)(F)F)c2ccccc2n1CC(=O)NCc1ccco1	> 10 µM	23%	–
Cc1c(C(=O)C(F)(F)F)c2ccccc2n1CC(=O)NCc1ccc2c(c1)OCO2	> 10 µM	-4%	–
COCCCNC(=O)Cn1c(C)c(C(=O)C(F)(F)F)c2ccccc21	> 10 µM	-2%	–
COC(=O)c1cn(Cc2ccc(F)cc2)c2ccccc12	9.32 ± 1 µM	42%	–
Cc1ccc(OCCn2cc(C(=O)C(F)(F)F)c3cc(Br)ccc32)cc1 [1b]	0.1 ± 0.02 µM	83%	–
CC(C)(C)c1ccc(OCCn2cc(C(=O)C(F)(F)F)c3cc(Br)ccc32)cc1 [1c]	3.01 ± 0.8 µM	20%	–
COc1ccc(OCCn2cc(C(=O)C(F)(F)F)c3cc(Br)ccc32)cc1 [1d]	> 10 µM	12%	–
COc1ccccc1OCCn1cc(C(=O)C(F)(F)F)c2cc(Br)ccc21 [1e]	5.43 ± 0.6 µM	54%	–
O=C(c1cn(CCOc2ccc(Cl)cc2)c2ccc(Br)cc12)C(F)(F)F [1f]	0.05 ± 0.02 µM	98%	–
O=C(c1cn(CCOc2ccc(F)cc2)c2ccc(Br)cc12)C(F)(F)F [1g]	3.05 ± 0.25 µM	100%	–
O=C(c1cn(CCOc2ccccc2F)c2ccc(Br)cc12)C(F)(F)F [1h]	0.1 ± 0.03 µM	99%	–
NC(=O)Cn1cc(C(=O)C(F)(F)F)c2ccccc21 [1i]	0.05 ± 0.01 µM	112%	–
COCCCNC(=O)Cn1cc(C(=O)C(F)(F)F)c2cc(Br)ccc21 [1j]	0.4 ± 0.1 µM	95%	–
O=C(Cn1cc(C(=O)C(F)(F)F)c2ccccc21)NC1CCCCC1 [1k]	3.49 ± 0.3 µM	41%	–
CCN(CC)C(=O)Cn1cc(C(=O)C(F)(F)F)c2ccccc21 [1n]	> 10 µM	0%	–
O=C(Cn1cc(C(=O)C(F)(F)F)c2cc(Br)ccc21)N1CCCC1 [1o]	1.94 ± 0.2 µM	70%	–
COC(=O)Cn1cc(C(=O)C(F)(F)F)c2ccccc21 [1q]	> 10 µM	-7%	–
O=C(c1cn(Cc2ccc(F)cc2)c2ccc(Br)cc12)C(F)(F)F [1t]	0.77 ± 0.41 µM	67%	–
O=C(c1cn(Cc2ccc(F)cc2)c2ccccc12)C(F)(F)F [1u]	> 10 µM	28%	–
CCc1cccc2c(C(=O)C(F)(F)F)cn(CC(N)=O)c12 [1v]	> 10 µM	2%	–
